From a melting point compilation (Tetko et al.)

First: O=C(O)C(=O)C=Cc1cccs1
Second: CC(=O)N1c2ccccc2C[C@H]1C(=O)O
The melting point of the first is lower: 114 to 116 °C for the first, 194 to 196 °C for the second.

First: COCc1nc2cc(N)ccc2o1
Second: Nc1cccc(-c2nc(C3CC3)no2)c1
The melting point of the first is lower: 54 to 56 °C for the first, 89 to 91 °C for the second.

First: O=C(O)c1cnnn1-c1ccccc1Cl
Second: O=C(O)c1c(Cl)nc2ccccc2c1Cl
The melting point of the first is higher: 174 to 176 °C for the first, 167 to 169 °C for the second.

Compared with `CCOC(=O)c1ncoc1-c1scnc1C`, `CCOC(=O)c1c(C2CCCCC2)csc1N` is higher in melting point: 78 to 80 °C for the first, 109 to 111 °C for the second.

First: Cc1ccc(NS(=O)(=O)c2ccsc2C(=O)O)cc1
Second: Cc1ccc(S(=O)(=O)NCCCC(=O)O)cc1
The melting point of the first is higher: 192 to 194 °C for the first, 138 to 140 °C for the second.

First: CC(C)(C)c1ccc(OCC(=O)O)c(C(C)(C)C)c1
Second: CC(=O)c1cccc(OCC(=O)O)c1
The melting point of the first is lower: < 17 °C for the first, 119 to 121 °C for the second.

Compared with `Cc1ccc(C(=O)O)c(Br)c1`, `CSc1cc(C(=O)O)ccc1F` is higher in melting point: 143 to 147 °C for the first, 189 to 191 °C for the second.

First: C=CS(=O)(=O)c1cccc(Br)c1
Second: O=C(O)C1(c2cccc(Br)c2)CC1
The melting point of the first is lower: 50 to 52 °C for the first, 143 to 145 °C for the second.

First: O=C(OCCl)OC1CCCCC1
Second: O=C(O)c1cccc(S(=O)(=O)N2CCCCCC2)c1
The melting point of the first is lower: 36 to 38 °C for the first, 173 to 175 °C for the second.

First: Cc1c(C(=O)O)cnn1C1CCS(=O)(=O)C1 (configuration not stated)
Second: CC1CCC2(CC1)NC(=O)N(CC(=O)O)C2=O (configuration not stated)
The melting point of the first is higher: 249 to 251 °C for the first, 223 to 225 °C for the second.

Compared with `NCc1cc(C(N)=O)no1`, `O=C(O)c1cccc(-c2ncon2)c1` is higher in melting point: 149 to 151 °C for the first, 175 to 177 °C for the second.

First: O=C(Nc1ccc(Cl)cc1)Nc1ccccc1Br
Second: NNC(=O)Nc1ccc(Cl)cc1Cl
The melting point of the first is higher: 222 to 224 °C for the first, 153 to 155 °C for the second.

First: Sc1nnc(-c2cccs2)n1CC1CCCO1 (configuration not stated)
Second: Nc1ccc(NC(=O)NCC2CCCO2)cc1 (configuration not stated)
The melting point of the first is lower: 107 to 108 °C for the first, 141 to 143 °C for the second.

Compared with `COc1ccc(C2(C)NC(=O)N(NC(=O)CCl)C2=O)cc1` (configuration not stated), `CS(=O)(=O)c1ccc(OCC(=O)O)cc1` is higher in melting point: 124 to 126 °C for the first, 172 to 174 °C for the second.

Compared with `Nc1cc2c(cc1Cl)NC(=O)CO2`, `Cc1c(N)cc(C#N)cc1F` is lower in melting point: 227 to 229 °C for the first, 135 to 137 °C for the second.

First: CSC(=C(C#N)C#N)N1CCOCC1
Second: COc1ccc(S(=O)(=O)N2CCOCC2)cc1N
The melting point of the first is lower: 143 to 145 °C for the first, 189 to 191 °C for the second.

First: CN(C)c1cc(C(=O)O)c2ccccc2n1
Second: CN(C)C(=O)Nc1ccc(Cl)c(C(=O)O)c1
The melting point of the first is higher: 259 to 261 °C for the first, 214 to 216 °C for the second.

First: CC1CN=C(Nc2cccc(S(=O)(=O)N(C)C)c2)S1 (configuration not stated)
Second: O=C(O)CNS(=O)(=O)c1cccc(C(F)(F)F)c1
The melting point of the first is higher: 111 to 113 °C for the first, 80 to 82 °C for the second.

Compared with `O=C1CSC(=S)N1c1ccc(F)cc1`, `Cc1nn(-c2ccc(F)cc2)c2ncc(C(=O)O)cc12` is higher in melting point: 137 to 139 °C for the first, 347 to 349 °C for the second.

First: Cc1nn(C)cc1CCC(=O)O
Second: CCNc1ncc(C(=O)O)s1
The melting point of the first is lower: 114 to 116 °C for the first, 187 to 189 °C for the second.

First: O=Cc1cn(-c2ccccc2)nc1-c1ccncc1
Second: O=C(O)c1ccc(-c2ccncc2)[nH]c1=O
The melting point of the first is lower: 153 to 155 °C for the first, 315 to 317 °C for the second.

First: COc1cc2cc(C(=O)O)[nH]c2cc1OC
Second: COc1cc(C=O)c(SC)cc1OC
The melting point of the first is higher: 199 to 201 °C for the first, 111 to 113 °C for the second.

First: CCN(Cc1ccc2c(c1)OCCO2)C(=O)CCl
Second: CCCOc1ccc2c(c1)OCC(C(=O)O)C2 (configuration not stated)
The melting point of the first is higher: 213 to 215 °C for the first, 139 to 141 °C for the second.

First: CN(c1ccccc1)S(=O)(=O)c1ccccc1C(=O)O
Second: O=C(O)c1ccccc1NS(=O)(=O)c1cccc(C(F)(F)F)c1
The melting point of the first is lower: 136 to 138 °C for the first, 157 to 159 °C for the second.

First: Cc1cc(N)n(C2CCOCC2)n1
Second: CC(N)c1cc(F)ccc1N1CCC(O)CC1 (configuration not stated)
The melting point of the first is higher: 177 to 179 °C for the first, 138 to 140 °C for the second.

First: N#CC(c1ccc(Br)cc1)N1CCNCC1 (configuration not stated)
Second: NCc1ccc(C(=O)N2CCNC(=O)C2)cc1
The melting point of the first is lower: 83 to 85 °C for the first, 143 to 145 °C for the second.

First: COC(=O)c1sccc1O
Second: Cc1cc(S(=O)(=O)Cl)sc1C(=O)O
The melting point of the first is lower: 49 to 51 °C for the first, 194 to 196 °C for the second.

First: O=C(O)c1ccc(I)c(Cl)c1
Second: COc1ccc(Cl)cc1C(F)(F)C(=O)O
The melting point of the first is higher: 218 to 220 °C for the first, 110 to 112 °C for the second.

First: NCc1ccc(-n2cnc3ccccc32)cc1
Second: Cc1ncc(CO)n1-c1ccccc1
The melting point of the first is lower: 72 to 74 °C for the first, 173 to 175 °C for the second.

Compared with `CC(Cl)C(=O)Nc1sc2c(c1C#N)CCC2` (configuration not stated), `CCNS(=O)(=O)c1ccc(C(=O)O)cc1` is higher in melting point: 204 to 206 °C for the first, 219 to 221 °C for the second.

Compared with `CS(=O)(=O)c1ccc(C2CNCCO2)cc1` (configuration not stated), `COC(=O)CNS(=O)(=O)c1ccc(N)cc1` is lower in melting point: 109 to 111 °C for the first, 78 to 80 °C for the second.

Compared with `Sc1nc(-c2cccnc2)no1`, `Nc1ccn(Cc2ncccn2)n1` is lower in melting point: 179 to 181 °C for the first, 100 to 102 °C for the second.

First: Nc1cc(=O)[nH]c(S)n1
Second: O=C(O)c1cccc(-n2[nH]c(=O)ccc2=O)c1
The melting point of the first is lower: 300 to 302 °C for the first, 312 to 314 °C for the second.

Compared with `CC(C)(C)c1noc(N)n1`, `CC(C)(C)c1nonc1N` is lower in melting point: 192 to 194 °C for the first, 90 to 92 °C for the second.

Compared with `CSCCC(C(=O)O)N1C(=O)c2ccccc2C1=O` (configuration not stated), `COc1ccc(C(=O)Oc2ccc(C=O)cc2OC)cc1` is lower in melting point: 125 to 127 °C for the first, 95 to 98 °C for the second.

First: Cc1cc(C)c2nc(Cl)cc(C)c2c1
Second: Clc1ccc2nccn2n1
The melting point of the first is higher: 128 to 132 °C for the first, 114 to 116 °C for the second.
